{"source": "patent US5013759A", "about": "“Compounds and compositions having anti-inflammatory and analgesic activity” (The Procter & Gamble Company, priority 1990, dated 1991)", "key": {"[1]": {"tested_on": "Croton Oil Inflamed Mouse Ear", "assay": "Croton Oil Inflamed Mouse Ear Test (Topical treatment)", "type": "in vivo, Adult male Cox ICR mice", "conditions": "1% solution in ethanol, two doses, 4 h after croton oil, All values significant p 0.05", "procedure": "Substituted phenylacetic acid amide compounds were tested for anti-inflammatory activity using the Croton Oil Inflamed Mouse Ear Test (Topical treatment).\nAdult male Cox ICR mice, 25-35 g, were treated at about 3:00 PM on the left ear with 25 l of a 1% solution of the test compound in ethanol. They were placed in individual stainless steel cages where food and water was available ad libitum. The following morning around 8:00 AM the mice were dosed a second time on the same ear. One hour after the second dose, 25 l of 2% croton oil in acetone was applied to the left ear of the control and test groups.\nFour hours after the croton oil treatment, the mice were sacrificed by cervical dislocation and both ears removed. A 5 mm punch biopsy was taken from each ear and weighed to the nearest 0.1 mg on a Cahn electrobalance.\nThe results were expressed as percent inhibition of the swelling response compared to the control group according to the formula:\n(C-Ta..n)/C×100=Percent Inhibition\nwhere C is the average difference between the left and right ear weights of the control group, and\nTa..n is the difference between left and right ear weights of animal (a..n) in a treated group.\nStatistical tests for significance between groups were made using a one way analysis of variance of the ear weight differences."}, "[2]": {"assay": "Oral administration of soft gelatin capsules to a human (Example IV)", "type": "in vivo", "conditions": "two capsules each containing 225 mg of the composition, 60 kg human", "procedure": "(§1) A composition for oral administration is prepared by combining the following ingredients:\nN-oleyl-4-hydroxy-3-methoxyphenylacetamide, 1.10 kg"}, "[3]": {"assay": "Oral administration of syrup to an adult human (Example V)", "type": "in vivo", "conditions": "one teaspoon of syrup, 70 kg adult human", "procedure": "as §1\nN-oleyl-4-hydroxy-3-methoxyphenylacetamide, 250 g\nPropylene glycol, 1800 ml\nArtificial Cherry flavor, 10 ml\nThe above ingredients are combined to produce a syrup and are packaged under sterile conditions in 6 oz. bottles."}, "[4]": {"tested_on": "Carrageenan Rat Paw Edema", "assay": "Carrageenan Rat Paw Edema Test (Oil Vehicle)", "type": "in vivo, Male Sprague Dawley rats", "conditions": "4 h after carrageenan, All values significant p 0.05", "procedure": "Substituted phenylacetic acid amide compounds were tested for anti-inflammatory activity using the Carrageenan Rat Paw Edema Test (Oil Vehicle).\nMale Sprague Dawley rats (Charles River Laboratories) were weighed and food fasted overnight. The animals were divided into four to six groups of six animals each according to body weights, average about 145 g, so that each group had about the same average weight (within 10 g).\nThe following morning five ml of water was dosed orally via stomach tube to each animal to facilitate paw swelling. The animals were dosed with the test compound and then placed in individual cages. The drug was dissolved in ethyl oleate: benzyl alcohol, 98:2, and delivered via stomach tube in 1 ml volume.\nPaw volumes (0 time) were determined on both hind paws with a mercury displacement device equipped with a transducer and digitizer. […] Four hours after the carrageenan injection, the paw volumes are again determined.\nThe results are expressed as percent inhibition of the mean paw volume of the test group relative to the control group according to the formula: […]\nTa..n is the difference in paw swelling in the treated animals (a..n). Statistical differences are determined by one way analysis of variance."}, "[5]": {"assay": "Topical application to forearm of a human (Example VI)", "type": "in vivo", "conditions": "0.4 ml to 80 cm^2 of forearm, 60 kg human", "procedure": "A composition for topical administration is prepared by combining the following ingredients:\nN-oleyl-4-hydroxy-3-methoxyphenylacetamide, 4 g\nThe phenylacetamide is melted with slight warming and combined with the other ingredients."}}}
{"molecule": "C=CCCCCCCCCNC(=O)Cc1ccc(O)c(OC)c1", "note": "[N-9-decenyl-4-hydroxy-3-methoxyphenylacetamide]", "values": [{"measurement": "Percent Inhibition (of the swelling response compared to control)", "setting": "[1]", "result": "98.9 +/- 11.9%"}]}
{"molecule": "CCCCCCCC(C)NC(=O)Cc1ccc(O)c(OC)c1", "note": "(stereo not drawn) [N-(2-nonanyl)-4-hydroxy-3-methoxyphenylacetamide]", "values": [{"measurement": "Percent Inhibition (of the swelling response compared to control)", "setting": "[1]", "result": "55.6 +/- 26.5%"}]}
{"molecule": "CCCCCCC(C)NC(=O)Cc1ccc(O)c(OC)c1", "note": "(stereo not drawn) [N-(2-octanyl-)-4-hydroxy-3-methoxyphenylacetamide]", "values": [{"measurement": "Percent Inhibition (of the swelling response compared to control)", "setting": "[1]", "result": "48.1 +/- 15.8%"}]}
{"molecule": "C=C(CCCCCCCCC)CCCCCCCCNC(=O)Cc1ccc(O)c(OC)c1", "note": "[N-(9-methylene-1-octadecanyl-)-4-hydroxy-3-methoxyphenyl acetamide]", "values": [{"measurement": "Analgesia", "setting": "[2]", "result": "increased analgesic effect"}, {"measurement": "Reduction of inflammation", "setting": "[2]", "result": "substantially similar reduction of inflammation"}]}
{"molecule": "COc1cc(CC(=O)NC2CCCCCCC2)ccc1O", "note": "[N-cyclooctyl-4-hydroxy-3-methoxyphenylacetamide]", "values": [{"measurement": "Analgesia", "setting": "[3]", "result": "weaker analgesic effect"}, {"measurement": "Reduction of inflammation", "setting": "[3]", "result": "substantially similar reduction of inflammation"}]}
{"molecule": "CCCCCCCCCCNC(=O)Cc1ccc(O)c(OC)c1", "note": "[N-decyl-4-hydroxy-3-methoxyphenylacetamide]", "values": [{"measurement": "Percent Inhibition (of the swelling response compared to control)", "setting": "[1]", "result": "58.1 +/- 29.4%"}]}
{"molecule": "CCCCCCCCCCCCNC(=O)Cc1ccc(O)c(OC)c1", "note": "[N-dodecyl-4-hydroxy-3-methoxyphenylacetamide]", "values": [{"measurement": "Percent Inhibition (of the swelling response compared to control)", "setting": "[1]", "result": "55.3 +/- 20.7%"}]}
{"molecule": "CCCCCCCNC(=O)Cc1ccc(O)c(OC)c1", "note": "[N-heptyl-4-hydroxy-3-methoxyphenylacetamide]", "values": [{"measurement": "Percent Inhibition (of the swelling response compared to control)", "setting": "[1]", "result": "69.4 +/- 33.9%"}]}
{"molecule": "CCCCCCCCCNC(=O)Cc1ccc(O)c(OC)c1", "note": "[N-nonyl-4-hydroxy-3-methoxyphenylacetamide]", "values": [{"measurement": "Percent Inhibition (of the swelling response compared to control)", "setting": "[1]", "result": "80.7 +/- 23.0%"}]}
{"molecule": "CCCCCCCCNC(=O)C(C)c1ccc(O)c(OC)c1", "note": "(stereo not drawn) [N-octyl-4-hydroxy-3-methoxyphenyl-2-methyl-acetamide]", "values": [{"measurement": "Percent Inhibition (of the swelling response compared to control)", "setting": "[1]", "result": "88.9 +/- 24.1%"}]}
{"molecule": "CCCCCCCCNC(=O)Cc1ccc(O)c(OC)c1", "note": "[N-octyl-4-hydroxy-3-methoxyphenylacetamide]", "values": [{"measurement": "Percent Inhibition (of the swelling response compared to control)", "setting": "[1]", "result": "89.1 +/- 15.7%"}]}
{"molecule": "CCCCCCCC/C=C\\CCCCCCCCNC(=O)Cc1ccc(O)c(OC)c1", "note": "[N-oleyl-4-hydroxy-3-methoxyphenylacetamide]", "values": [{"measurement": "Percent Inhibition (of mean paw volume relative to control)", "setting": "[4]; 200 mg/kg oral in ethyl oleate: benzyl alcohol 98:2", "result": "89.3 +/- 10.8%"}, {"measurement": "Percent Inhibition (of mean paw volume relative to control)", "setting": "[4]; 400 mg/kg oral in ethyl oleate: benzyl alcohol 98:2", "result": "95.6 +/- 11.2%"}, {"measurement": "Percent Inhibition (of the swelling response compared to control)", "setting": "[1]", "result": "83.5 +/- 11.9%"}]}
{"molecule": "CCCCCCCCCCCCCCCCCCNC(=O)Cc1ccc(O)c(OC)c1", "note": "[N-stearyl-4-hydroxy-3-methoxyphenylacetamide]", "values": [{"measurement": "Analgesia", "setting": "[5]", "result": "weaker analgesic effect"}, {"measurement": "Reduction of inflammation", "setting": "[5]", "result": "substantially similar reduction of inflammation"}]}
